Laboratory results reported in publication PMC2724550, “Citrus auraptene suppresses cyclin D1 and significantly delays N-methyl nitrosourea induced mammary carcinogenesis in female Sprague-Dawley rats” (BMC Cancer, 2009).
Marks after values point to notes of the source that are not given here.

Assays:
Format in all cases: in vivo, female Sprague-Dawley rats
cyclin D1 = assay: Western blot of cyclin D1 expression in rat mammary tumors; conditions: 500 ppm in diet, compared to MNU only group, n = 10 per group
Experimental: The mammary tumors from the female Sprague-Dawley rats were analyzed for cyclin D1 expression and eukaryotic Initiation Factor 4E (eIF4E) as previously described. Briefly, samples were first homogenized in RIPA buffer [50 mM Tris-HCL (pH 7.4), 1% Triton-X, 150 mM NaCl, 1 mM EDTA, 1 mM sodium orthovanadate, 1 mM PMSF, 1 μg of aprotinin, leupeptin and pepstatin and 1 mM sodium fluoride]. The proteins were measured by Bradford method (using BSA as a standard), followed by the addition of 2 × sample buffer [0.125 M Tris, 10% (w/v) SDS, 40% (v/v) glycerol, 0.04% (w/v) bromophenol blue, and 80 mM dithiothreitol]. Samples were heated to 95°C for 5 min, and 10 μg of protein/well was loaded and resolved. The proteins were then transferred and detected for cyclin D1 expression as mentioned above. Lysate from MCF-7 cells treated with IGF-1 was used as positive control for cyclin D1.
Figure 5 Effects of dietary auraptene on cyclin D1 expression in rat mammary tumors. From the same tumor study, rat mammary tumors were homogenized and the lysates were used for western blot to analyze the cyclin D1 expression. […] (+ statistically different from MNU group, * statistically different from Auraptene 200 group, p < 0.05, One-way ANOVA, Tukey test).

[1] = Tissue extraction and HPLC-fluorescence analysis of auraptene in rat tissues; conditions: for average concentration in normal mammary glands: means ± S.E.
Experimental: The concentration of auraptene was measured in mammary glands, livers and tumors of rats. The specimens from the animals were weighed and minced on a glass plate kept on ice. The minced sample was added to 0.05 M Tris buffer, pH 7.4, containing 0.25 M sucrose in 1 ml. To 1 ml of this homogenized sample, 80 μL of 100 μM curcumin was added as internal standard followed by vortexing. The sample was then extracted twice with ethyl acetate: acetone (2:1 v/v). The combined supernatant was then dried under N2 gas, resuspended in 1 mL 70% methanol/H2O and analyzed by HPLC (Shimadzu, SIL-10AF) with UV (254 nm) and fluorescence detection (Shimadzu, RF-535) at excitation and emission wavelengths of 329 nm and 390 nm respectively. The flow rate in HPLC was 1 ml/min with C18*5μ column. The mobile phase started with 80% methanol in water up to 20 minutes and was increased in a linear gradient up to 100% methanol over the next 5 minutes. Under these conditions, auraptene eluted at 14 minutes and curcumin at 6 minutes. The ratio of area under the curve for auraptene at different concentrations to that of curcumin was plotted to make the standard curve. The concentration of auraptene in the specimens was calculated from the standard curve. For the calculation of concentration, 1 gm of the tissue was assumed to occupy a volume of 1 ml.
Figure 6 Concentrations of auraptene in rat tissues from the tumor study. The rat mammary glands, tumors and livers were weighed and homogenized. To the homogenate 80 μL of 100 μM curcumin was added as internal standard and extracted twice with ethyl acetate: acetone mixture (2:1 v/v). The extract was dried and resuspended in 1 mL 70% methanol/H2O and analyzed by HPLC (Shimadzu, SIL-10AF) with UV (254 nm) and fluorescence detection (Shimadzu, RF-535) at excitation and emission wavelengths of 329 nm and 390 nm respectively.

[2] = tested on: N-methyl nitrosourea (MNU) induced mammary carcinogenesis; assay: MNU-induced rat mammary carcinogenesis study, dietary auraptene; conditions: for Incidence (percentage of rats with tumor) / Multiplicity (average number of tumors per rat): means ± SE; for tumor burden: average tumor weight per rat / tumor burden: total tumor weights per rat: at necropsy
Experimental: A total of 128 female Sprague-Dawley rats (28 days of age), purchased from Harlan Teklad (Madison, WI), were used for this experiment. They were housed two per cage, in a temperature and humidity controlled AAALAC facility under 12 h light/dark cycle. All procedures were approved by LSUHSC Institutional Animal Care and Use Committee in accordance with NIH guidelines. They were fed test diets as described below and allowed access to food and water ad libitum.
Rats (28 days of age) were divided up randomly into groups of 24–26 each and were handled daily to get them accustomed to human touch. At 42 days of age the rats were shifted to the test diet. Control group and MNU only group were fed with Teklad (powdered diet) only. MNU/Auraptene 200 ppm group and MNU/Auraptene 500 ppm group received 200 ppm and 500 ppm of auraptene respectively, mixed in the diet for the duration of the study. The doses were selected from the pilot study conducted with a small number of animals. In addition to the 200 ppm dose of auraptene, which indicated the chemopreventive effect of auraptene, a higher dose of auraptene at 500 ppm was added to this study to see any increased chemopreventive effects. Auraptene has been administered in diet at 100 ppm and 500 ppm in other models of cancer. The diet was prepared once a week and stored in cold room. The food was replaced on Monday, Wednesday and Friday or as needed. […] At 50 days of age all the groups except the control group received intraperitoneal MNU injection (50 mg/kg bw in sterile acidified saline). The control group received vehicle only. The rats were palpated for tumors twice a week starting at 2 weeks after MNU administration. Any tumors felt during palpation were recorded by location. The rats were weighed once a week. A diet consumption analysis was done once to see if rats were consuming enough feed across all the groups and there was no significant difference in food consumption between the groups (data not shown). Any rats found to be moribund during the study were sacrificed within 24 h and necropsied. At 18 weeks after MNU administration, rats were euthanized by carbon dioxide asphyxiation and necropsied. The tumor location and weight of the tumor were marked in the necropsy sheet. Mammary fat pads and the tumors were collected in formalin, OCT compound and liquid nitrogen.
The rat body weight data was compared between groups by One-Way ANOVA followed by Tukey test. Groups were compared for the total number of tumors per rat by the nonparametric Kruskal-Wallis test. Time to tumor was estimated and compared among groups using survival curve analysis by the Log-rank test. The Cochran-Armitage test was used to test for trends in binomial response to different dose levels. Analysis was performed using StatXact (Cytel Software Corporation, Cambridge MA) and SPSS (SPSS Inc., Chicago IL). The cell proliferation assays and western blot data were analyzed by One-Way ANOVA followed by Tukey test.

[3] = 200 ppm in diet, 112 days (16 weeks) after MNU
[4] = 200 ppm in diet, 126 days (18 weeks) after MNU
[5] = 200 ppm in diet, 126 days (18 weeks) after MNU, listed as Aur.
[6] = 500 ppm in diet, 16 weeks, vs MNU only group
[7] = 500 ppm in diet, 112 days (16 weeks) after MNU
[8] = 500 ppm in diet, 126 days (18 weeks) after MNU
[9] = 500 ppm in diet, 126 days (18 weeks) after MNU, listed as Aur.

CC(C)=CCC/C(C)=C/COc1ccc2ccc(=O)oc2c1 [auraptene]
reduction of cyclin D1 expression in rat mammary tumors (cyclin D1): 49%
average concentration in normal mammary glands ([1]; 200 ppm in diet): 1.4 ± 0.5 µM
average concentration in livers ([1]; 500 ppm in diet, mean, n = 2): 0.87 µM
average concentration in normal mammary glands ([1]; 500 ppm in diet): 1.8 ± 0.3 µM
Median time to tumor ([2]; 200 ppm in diet): 91 days
first palpable tumor after MNU injection ([2]; 200 ppm in diet): 38 days
Incidence (percentage of rats with tumor) [2, 3]: 76.9 ± 8.4%
Multiplicity (average number of tumors per rat) [2, 3]: 1.69 ± 0.27
Incidence (percentage of rats with tumor) [2, 4]: 81%
Multiplicity (average number of tumors per rat) [2, 4]: 2.08
Incidence (percentage of rats with tumor) [2, 5]: 80.7 ± 7.8%
Multiplicity (average number of tumors per rat) [2, 5]: 2.08 ± 0.33
tumor burden: average tumor weight per rat ([2]; 200 ppm in diet): 2.94 ± 0.79 grams
tumor burden: total tumor weights per rat ([2]; 200 ppm in diet): 6.52 ± 1.49 grams
delay of median time to tumor ([2]; 200 ppm in diet, compared to MNU group): 11 days
Median time to tumor ([2]; 500 ppm in diet): 119 days
first palpable tumor after MNU injection ([2]; 500 ppm in diet): 49 days
inhibition of tumor multiplicity [2, 6]: 37%
suppression of tumor incidence [2, 6]: 46%
Incidence (percentage of rats with tumor) [2, 7]: 45.8 ± 10.4^b %
Multiplicity (average number of tumors per rat) [2, 7]: 1.21 ± 0.35^c
Incidence (percentage of rats with tumor) [2, 8]: 67%
Multiplicity (average number of tumors per rat) [2, 8]: 2.0
Incidence (percentage of rats with tumor) [2, 9]: 66.7 ± 9.8%
Multiplicity (average number of tumors per rat) [2, 9]: 2.00 ± 0.43
tumor burden: average tumor weight per rat ([2]; 500 ppm in diet): 1.79 ± 0.54 grams
tumor burden: total tumor weights per rat ([2]; 500 ppm in diet): 6.50 ± 2.10 grams
delay of median time to tumor ([2]; 500 ppm in diet, compared to MNU only group): 39 days
total number of tumors in group ([2]; 500 ppm in diet, end of study, MNU only group had 65): 48 tumors
Median time to tumor ([2]; 500 ppm in diet, listed as Aur.): 119^d days
